Blank lines part the entries; values can stand above or below the compound they belong to.
Columns and labels:
[1] = system: excitatory amino acid receptor; details: sites normally activated by glutamate and aspartate; cited from earlier work
rats = details: administration to rats; cited from earlier work
brain [2] = details: cited from earlier work
glycine modulatory site = details: cited from earlier work
brain [3] = details: peripherally formed; cited from earlier work
kyn-3-OHase = details: systemic administration; cited from earlier work
rat kyn-3-OHase = target: T1, rat kyn-3-OHase (Rattus norvegicus, UniProt O88867); experiment: Inhibition of rat kyn-3-OHase expressed in Xenopus laevis oocytes; format: biochemical; details: homogenates of oocytes injected with the clone, 50 μM L-kyn
T1 construct: encodes a deduced protein of 478 amino acid residues; expressed in transfected cells; host or cells: Xenopus laevis oocytes injected with cRNA of the cloned rat kidney cDNA (homogenate)
T1 sequence (O88867 whole entry): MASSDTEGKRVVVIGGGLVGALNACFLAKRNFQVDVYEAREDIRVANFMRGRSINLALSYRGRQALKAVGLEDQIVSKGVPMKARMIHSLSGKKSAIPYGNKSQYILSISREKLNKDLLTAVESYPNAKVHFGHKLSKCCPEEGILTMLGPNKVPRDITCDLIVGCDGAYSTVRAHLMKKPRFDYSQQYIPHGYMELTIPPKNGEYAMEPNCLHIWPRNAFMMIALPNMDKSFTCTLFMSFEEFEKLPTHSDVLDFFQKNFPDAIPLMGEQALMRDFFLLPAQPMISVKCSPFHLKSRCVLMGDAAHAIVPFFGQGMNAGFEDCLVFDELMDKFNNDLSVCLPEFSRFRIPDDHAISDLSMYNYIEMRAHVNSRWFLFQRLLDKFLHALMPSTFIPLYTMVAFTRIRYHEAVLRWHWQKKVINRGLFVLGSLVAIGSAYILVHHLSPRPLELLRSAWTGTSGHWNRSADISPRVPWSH
Excerpt: Kyn-3-OHase activity was quantified by the conversion of L-kyn to 3-OH-Kyn.

Structure (SMILES): O=C(O)c1cccnc1C(=O)O [QUIN, quinolinic acid]
- activity at excitatory amino acid receptor sites [1]: agonist
- convulsions (rats): caused convulsions

Structure (SMILES): O=C(O)c1cc(=O)c2ccccc2[nH]1 [KYNA, kynurenic acid]
- properties when applied directly into the brain (brain [2]): anticonvulsant and neuroprotective properties
- affinity to the glycine modulatory site (glycine modulatory site): particularly high affinity
- excitatory amino acid receptor antagonism (glycine modulatory site): effective excitatory amino acid receptor antagonist

Structure (SMILES): Nc1c(O)cccc1C(=O)O [3-hydroxyanthranilic acid]
- entry into the brain (brain [3]): enters the brain very poorly

- IC50 (rat kyn-3-OHase): 290 nM
Structure (SMILES): NC(CC(=O)c1ccc(Cl)c(Cl)c1)C(=O)O (racemic) [FCE 28833A, (R,S)-3,4-dichlorobenzoylalanine]
- endogenous KYNA levels in rat brain tissue (kyn-3-OHase): dose-dependent elevation
- endogenous kynurenine levels in rat brain tissue (kyn-3-OHase): dose-dependent elevation

Source: patent publication US6107069A, “Recombinant kynurenine-3-hydroxylase enzyme and process for its preparation” (priority 1996, dated 2000)
